Earlier results, collected in paper PMC9516332 (Frontiers in Oncology, 2022).

Key:
[1] = target: panel of 255 wild-type kinases (Homo sapiens, UniProt Q04912); details: kinase RON; 1 µmol/L single concentration; ref DOI: 10.1158/1535-7163.MCT-18-0877; cited from earlier work
[2] = target: panel of 255 wild-type kinases (Homo sapiens, UniProt P49841); details: kinase GSK3β; 1 µmol/L single concentration; ref DOI: 10.1158/1535-7163.MCT-18-0877; cited from earlier work
[3] = target: panel of 255 wild-type kinases (Homo sapiens, UniProt P54756); details: kinase EPHA5; 1 µmol/L single concentration; ref DOI: 10.1158/1535-7163.MCT-18-0877; cited from earlier work
[4] = target: T1, panel of 255 wild-type kinases (Homo sapiens, UniProt Q13043); details: MST1; 1 µmol/L single concentration; ref DOI: 10.1158/1535-7163.MCT-18-0877; cited from earlier work
T1 sequence (Q13043 1-487): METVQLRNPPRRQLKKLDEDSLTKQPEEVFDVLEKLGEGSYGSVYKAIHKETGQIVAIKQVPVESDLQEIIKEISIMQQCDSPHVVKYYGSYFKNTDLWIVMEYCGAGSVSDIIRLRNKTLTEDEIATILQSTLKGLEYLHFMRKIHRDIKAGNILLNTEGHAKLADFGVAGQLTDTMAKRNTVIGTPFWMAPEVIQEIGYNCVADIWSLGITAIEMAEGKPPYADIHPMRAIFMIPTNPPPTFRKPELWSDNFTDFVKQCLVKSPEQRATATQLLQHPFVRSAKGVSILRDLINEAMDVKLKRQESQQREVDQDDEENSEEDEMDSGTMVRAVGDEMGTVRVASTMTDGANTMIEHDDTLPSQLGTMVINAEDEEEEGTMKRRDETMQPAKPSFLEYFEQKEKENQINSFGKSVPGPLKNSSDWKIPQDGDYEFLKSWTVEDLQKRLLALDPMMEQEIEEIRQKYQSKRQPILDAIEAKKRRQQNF

[5] = target: panel of 255 wild-type kinases (Homo sapiens, UniProt O94804); details: kinase LOK; 1 µmol/L single concentration; ref DOI: 10.1158/1535-7163.MCT-18-0877; cited from earlier work
[6] = target: panel of 255 wild-type kinases (Homo sapiens, UniProt Q00535); details: CDK5/p25 kinase assay; 1 µmol/L single concentration; ref DOI: 10.1158/1535-7163.MCT-18-0877; cited from earlier work
[7] = target: T2, panel of 255 wild-type kinases (Homo sapiens, UniProt Q13188); details: MST2; 1 µmol/L single concentration; ref DOI: 10.1158/1535-7163.MCT-18-0877; cited from earlier work
T2 sequence (Q13188 1-491): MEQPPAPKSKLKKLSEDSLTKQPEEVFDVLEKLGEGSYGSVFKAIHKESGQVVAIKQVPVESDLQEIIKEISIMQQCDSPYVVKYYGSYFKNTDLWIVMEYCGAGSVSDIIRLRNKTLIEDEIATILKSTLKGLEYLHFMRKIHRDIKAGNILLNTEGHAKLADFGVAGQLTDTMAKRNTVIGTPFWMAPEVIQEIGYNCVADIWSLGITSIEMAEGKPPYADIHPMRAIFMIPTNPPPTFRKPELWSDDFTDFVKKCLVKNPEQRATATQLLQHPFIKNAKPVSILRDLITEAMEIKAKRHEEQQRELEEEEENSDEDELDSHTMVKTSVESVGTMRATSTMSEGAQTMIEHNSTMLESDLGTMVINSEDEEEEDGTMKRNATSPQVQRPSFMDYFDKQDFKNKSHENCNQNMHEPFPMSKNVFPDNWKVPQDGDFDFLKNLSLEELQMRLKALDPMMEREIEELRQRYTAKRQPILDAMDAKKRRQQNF

[8] = target: panel of 255 wild-type kinases (Homo sapiens, UniProt Q9HBH9); details: MNK2; 1 µmol/L single concentration; ref DOI: 10.1158/1535-7163.MCT-18-0877; cited from earlier work
[9] = target: panel of 255 wild-type kinases (Homo sapiens, UniProt Q8IY84); details: NIM1K; 1 µmol/L single concentration; ref DOI: 10.1158/1535-7163.MCT-18-0877; cited from earlier work
[10] = target: panel of 255 wild-type kinases (Homo sapiens, UniProt Q8IU85); details: CaMK1δ kinase assay; 1 µmol/L single concentration; ref DOI: 10.1158/1535-7163.MCT-18-0877; cited from earlier work
[11] = target: panel of 255 wild-type kinases (Homo sapiens, UniProt Q13555); details: CaMK2γ kinase assay; 1 µmol/L single concentration; ref DOI: 10.1158/1535-7163.MCT-18-0877; cited from earlier work
[12] = target: panel of 255 wild-type kinases (Homo sapiens, UniProt P07947); details: kinase YES; 1 µmol/L single concentration; ref DOI: 10.1158/1535-7163.MCT-18-0877; cited from earlier work
[13] = target: panel of 255 wild-type kinases (Homo sapiens, UniProt Q13177); details: PAK2; 1 µmol/L single concentration; ref DOI: 10.1158/1535-7163.MCT-18-0877; cited from earlier work

Row | SMILES | %-inhibition at 1 µmol/L, RON [1] | %-inhibition at 1 µmol/L, GSK3β [2] | %-inhibition at 1 µmol/L, EPHA5 [3] | %-inhibition, MST1 [4] | %-inhibition at 1 µmol/L, LOK [5] | %-inhibition CDK5/p25 [6] | %-inhibition, MST2 [7] | %-inhibition, MNK2 [8] | %-inhibition, NIM1K [9] | %-inhibition CaMK1δ [10] | %-inhibition CaMK2γ [11] | %-inhibition at 1 µmol/L, YES [12] | %-inhibition, PAK2 [13]
1 | Cc1cc(Nc2ncc(Cl)c(Nc3ccccc3S(=O)(=O)C(C)C)n2)c(OC(C)C)cc1C1CCNCC1 [ceritinib] | 9% | -2.5% | 5% | 17% | 75% | -22% | 2.76% | 76% | -1.37% | 48% | 32% | 31% | -4.22%
2 | O=C(c1ccc(F)c(F)c1Nc1ccc(I)cc1F)N1CC(O)([C@@H]2CCCCN2)C1 [cobimetinib] | -9% | -2.44% | 1.26% | -9% | 10% | -7% | 1.8% | 8% | -3.67% | 1% | -2.31% | -0.706% | -17%
